Test results from US7572454B2, “T helper cell epitopes” (priority 1999, dated 2009).

System: PBMCs from dogs immunised with CDV
Assay: T-cell proliferation after in vitro stimulation of PBMC with peptide pools, tested with autologous APCs and single peptides
Type: cell-based, dog
Protocol: An alternate strategy was used to increase the precursor frequency of specific T cells recognising the CDV peptides. Fresh PBMCs obtained from these hyperimmunised dogs were subjected to stimulation in vitro with pools of all 94 peptides for 30 minutes at 37° C. The cells were then washed to remove any excess peptides and cultured for 7 days. This population of T cells was then tested with autologous APCs with every single peptide as the antigen.
To confirm this observation, the same four dogs were bled again, five weeks after receiving the dose of killed virus. The PBMCs were stimulated in vitro with pools of either all 94 peptides or peptides 21-40 (because most of the activity was in this region) and after 7 days of culture the stimulated T cells were tested against individual peptides. Significant stimulatory indices were obtained with all peptides, confirming the above results. Four more dogs which received only one dose of 3 in 1 vaccine were tested using the in vitro stimulation method and all four dogs responded to the majority of peptides shown in Table 2.
Once again the same peptides and one additional peptide P32 were tested on cells from additional dogs.

[1] = Table 1, Beagle Foxhound (Dog #18), hyperimmunised, PBMC stimulated with pool of all 94 peptides, 7 days culture
[2] = Table 1, Beagle Foxhound (Dog #19)
[3] = Table 1, Beagle Foxhound (Dog #20)
[4] = Table 1, Beagle Foxhound (Dog #21)
[5] = Table 3, Kelpie Foxhound (Dog #125)
[6] = Table 2, Beagle Foxhound (Dog #71), one dose of 3 in 1 vaccine
[7] = Table 2, Beagle Foxhound (Dog #72), one dose of 3 in 1 vaccine

| Sequence | Stimulatory index [1] | Stimulatory index [2] | Stimulatory index [3] | Stimulatory index [4] | Stimulatory index [5] | Stimulatory index (Table 5, Border Collie) | Stimulatory index (Table 5, Fox Terrier) | Stimulatory index (Table 5, Grey hound) | Stimulatory index (Table 5, Kelpie Pointer) | Stimulatory index (Table 5, Poodle Shitzu) | Stimulatory index (Table 5, Terrier Cross) | Stimulatory index (Table 4, Beagle Foxhound #19) | Stimulatory index (Table 4, Beagle Foxhound #20) | Stimulatory index (Table 4, Poodle Shitzu) | reaction with peripheral blood mononuclear cells (dogs of various breeds immunised with CDV) | Stimulatory index [6] | Stimulatory index (Table 2, Beagle Foxhound (Dog #73), one dose of 3 in 1 vaccine) | Stimulatory index [7] |
| --- | --- | --- | --- | --- | --- | --- | --- | --- | --- | --- | --- | --- | --- | --- | --- | --- | --- | --- |
| CIRGDTSSCARTLVSGT (canine distemper virus; synthetic peptide from canine distemper virus fusion protein (CDV-F) designated peptide P68) | 6.6 | <2 | <2 | 11.7 | 2.9 | <2 | <2 | <2 | <2 | 5 | <2 |  |  |  |  |  |  |  |
| DESSCVFVSESAICSQN (canine distemper virus; synthetic peptide from canine distemper virus fusion protein (CDV-F) designated peptide P64) |  |  |  |  |  | <2 | <2 | <2 | <2 | 50 | <2 | 2.5 | 2.5 | 50.0 | react strongly |  |  |  |
| EPINQALTLMTKNVKPL (canine distemper virus; synthetic peptide from canine distemper virus fusion protein (CDV-F) designated peptide P29) | 3.5 | 42 | 4.4 | <2 | 3.6 | <2 | <2 | <2 | <2 | 2 | 2 |  |  |  |  | 2 | 6 |  |
| EQSNKAIEEIREATQET (canine distemper virus; synthetic peptide from canine distemper virus fusion protein (CDV-F) designated peptide P39) |  |  |  |  | 2.9 |  |  |  |  |  |  |  |  |  |  |  |  |  |
| FAGVVLAGVALGVATAA (canine distemper virus; synthetic peptide from canine distemper virus fusion protein (CDV-F) designated peptide P33) |  |  |  |  | 6 | 2 | <2 | <2 | 2 | <2 | <2 |  |  |  |  |  |  | 1.6 |
| GIALHQSNLNAQAIQSL (canine distemper virus; synthetic peptide from canine distemper virus fusion protein (CDV-F) designated peptide P36) | 6.7 | 3.7 | 3.3 | 16 | 3 |  |  |  |  |  |  |  |  |  |  |  |  |  |
| GVALGVATAAQITAGIA [Peptide P34] |  |  |  |  | 2.1 |  |  |  |  |  |  |  |  |  |  |  |  |  |
| IGTDNVHYKIMTRPSHQ (canine distemper virus; synthetic peptide from canine distemper virus fusion protein (CDV-F) designated peptide P22) |  |  |  |  |  |  |  |  |  |  |  |  |  |  |  |  |  | 2.6 |
| KLLNSVLEPINQALTLM (canine distemper virus; synthetic peptide from canine distemper virus fusion protein (CDV-F) designated peptide P28) |  |  |  |  | 1.9 |  |  |  |  |  |  |  |  |  |  | 2 |  |  |
| NLNAQAIQSLRTSLEQS (canine distemper virus; synthetic peptide from canine distemper virus fusion protein (CDV-F) designated peptide P37) | 6.9 | 10.9 | 8.2 | 26 | 2.5 | <2 | <2 | <2 | 2 | <2 | 2 |  |  |  |  |  |  | 1.7 |
